{"source": "patent US12403151B2", "about": "“Compositions for use in the promotion of intestinal muscle growth and development and associated intestinal motility” (SOCIETE DES PRODUITS NESTLE S.A., priority 2017, dated 2025)", "test_system": "muscle layer of the ileum", "assay": "Thickness of the muscle layer of the ileum in young IUGR rats supplemented with HMOs", "format": "in vivo, Sprague-Dawley rats", "conditions": "IUGR rat pups; 3 g/kg body weight HMO by gavage d7 to d21, then 4.5% HMO in diet d22 to d57 (mix: LNnT:2FL 1:2 by weight, 1.5% + 3%); sacrificed at day 57; H&E histology; compared with Normal and IUGR control groups", "description": "Three groups of time-mated pregnant Sprague-Dawley female rats were bought from Charles River laboratories. One group was submitted to food restriction of 60% during the last 10 days of gestation and their offspring were cross-fostered to normally fed rats. A second group of pregnant females was normally fed and their offspring cross-fostered among the same group of dams. Immediately after birth (postnatal day 2 (d=2)), the born rat pups—subjects of the experiment—were assigned to one of the following groups: • Normal group (positive control): Normal-weight offspring born from unrestricted dams and fed after birth a normal non-supplemented diet; • IUGR group (negative control; n=20): IUGR rats being fed a normal diet after birth; • IUGR rats+HMO (test groups): During the experiment, they were reared by their mothers for 21 days and supplemented with HMOs (2-FL, LNnT or the Mix of 2-FL and LNnT). At weaning, they were fed a diet supplemented with the same HMOs, see details below. […]\nRats were sacrificed at day 57 after a 6-hr fasting period and samples of the small intestine were collected. The thickness of the muscle layer was measured on a sample of the ileum. […]", "note": "Entries after “also recorded” stand apart in the source; their conditions may differ."}
{"compound": "CC(=O)N[C@H]1[C@H](O[C@H]2[C@@H](O)[C@@H](CO)O[C@@H](O[C@H]3[C@H](O)[C@@H](O)C(O)O[C@@H]3CO)[C@@H]2O)O[C@H](CO)[C@@H](O[C@@H]2O[C@H](CO)[C@H](O)[C@H](O)[C@H]2O)[C@@H]1O", "note": "(mixture of isomers) [LNnT, lacto-N-neotetraose]", "values": [{"measurement": "thickness of the muscle layer of the ileum (mean per group, FIG. 1)", "result": "successful in increasing the thickness; also recorded: increase of the ileum muscle thickness over both the Normal and the IUGR groups"}]}
{"compound": "2′-fucosyllactose [2FL, reference compound]", "values": [{"measurement": "thickness of the muscle layer of the ileum (mean per group, FIG. 1)", "result": "no increase in intestinal muscle thickness"}]}
